Source: patent US20030216471A1, “Retinoid formulations for aerosolization and inhalation” (priority 2003, published 2003)
Where “and” joins values, the source holds several entries; their conditions need not be identical. Equal entries are not always repeated. Entries after “also recorded” stand apart in the source; their conditions may differ. Where two headings read alike, the source gives them in different places. Marks after values point to notes of the source that are not given here.

What was measured:
TGase II [1] = assay: TGase II assay of rat liver tissue after inhaled 13-cis RA (experiment B); assay type: in vivo; details: for TGase II assay, rat liver: 14 days
Method: The experimental groups were as follows (Table 1): 1. Vehicle control: rats (3) inhaled vehicle for 240 minutes; 2.
For liver tissue, a piece of approximately 100-400 mg was used. Tissue was diced in small pieces and homogenized in approximately 2 volumes of scraping buffer for 2-3 minutes at 4° C. Samples were centrifuged at 14,000 xg for 30 minutes at 4° C. The supernatant was removed and kept in ice until used.
(§1) Enzyme assay mixtures were prepared by adding 80 μl of SUBSTRATE mixture (322.8 μl H2O, 120 μl 0.5M NaBorate, 60 μl 0.01M EDTA, 60 μl 0.1M CaCl2, 6 μl 1M DTT, 240 μl dimethyl casein, 30 μl Triton X-100, 1.21 μl [^3H]-Putrescine, 120 μl Putrescine) to 20 μl sample, 20 μl scraping buffer for blank control, 20 μl (18 μl scraping buffer+2 μl TGase II) for positive control. Samples were mixed in 15 ml tubes, the tubes were shaken before putting them into a 28° C. water bath for 30 minutes. Reactions were slowed down in an ice bath. 80 μl of the incubation mixture was adsorbed onto paper disks. These were immediately dropped into cold 10% TCA (0.1% Putrescine) and washed with agitation for 7 minutes, followed by 2 additional washes with 5% TCA (0.05% putrescine) for 5-7 minutes, and once more with cold (−20° C.) 95% ethanol for 5 minutes. Paper disks were dried and placed into 5 ml Aquasol, and counted in a Liquid Scintillation Counter. Protein concentration determination was conducted by the Bradford method.

A/J mouse = details: cited from earlier work; for Efficacy (Carcinogen): 20 weeks, urethane
TGase II [2] = assay: TGase II activity in cultured human breast cancer MCF-7 cells; assay type: cell-based; details: MCF-7 cells, 10^−6 M, 72 hours, over DMSO
Method: Cells were harvested and Transglutaminase II activity was measured as described below. Nebulizer solution, inhalation procedures, details of animal housing are described below.
Cultured cells were placed in 100 μl scraping buffer [A: 2800 μl (400 μl 0.5M Na-Phosphate, 500 μl 0.01M EDTA, 100 μl 1M DTT, 9 ml PBS total 10 ml)+B:700 μl (10 μl 20 mg/ml PMSF 790 μl PBS total 800 μl)] for each dish. Cells were broken by a sonicator and kept in ice until used. TGase II assay was conducted as described below and previously {8217}.
as §1

A/J mice = assay: Lung carcinogenesis model: carcinogen-treated A/J mice exposed to isotretinoin aerosols; assay type: in vivo, mouse; details: for Efficacy (Carcinogen): 10-16 weeks; for non-significant reduction of tumor multiplicity: low dose; for reduction in multiplicity of tumor nodules: mid isotretinoin dose
Text: The A/J mouse is a well-established animal model for preclinical chemoprevention studies. This strain has a hereditary predisposition for lung cancer, the so-called pulmonary adenoma susceptibility (Pas) genes. A strong candidate for one of these genes, Pas-1, is the K-ras protooncogene. Carcinogenesis in this model with NNK as the inciting agent has been studied so that the times required to develop hyperplastic areas, adenomas, and carcinomas are well known. In addition, the timing of molecular changes associated with carcinogenesis has been studied and are similar to those in humans. In both species, K-ras mutations are common early events.
Powdered isotretinoin was dissolved in 100% ethanol plus 0.1% α-tocopherol and 0.1% ascorbyl palmitate to give concentrations of isotretinoin ranging from 0.1 to 10 mg/ml. The formulations were prepared monthly. The solutions were protected from light and stored at −5° C. until use. Ultraviolet-visible spectrophotometric verification of the formulated test article concentration was performed on all batches in advance of inhalation treatments with the test article solution. Only formulations within ±10% of the targeted concentration were used on study.
Within 24 h of the last inhalation exposure, animals were euthanized by intraperitoneal injection of pentobarbital and their lungs were removed and fixed in Bouin's solution or flash frozen for RAR determination. The lungs were evaluated in a blinded fashion so that neither carcinogen nor isotretinoin dose levels were known to the evaluator, who visually counted hyperplastic areas and adenomas on the lung pleural surface as previously described. The significance of the differences between the mean tumor incidence of the treatment and the control groups was determined using the Mann-Whitney Rank Sum test (Statmost TM, DataMost Corp., Sandy, Utah).

[3] = system: second aerodigestive tumors; details: oral, 1-2 mg/kg/day, previously treated head-and-neck cancer patients; cited from earlier work
[4] = BaP, weekly pulmonary dose 0.25 mg/kg
[5] = BaP, weekly pulmonary dose 4.0 mg/kg
[6] = NNK and BaP, A/J mice, inhalation
[7] = NNK, weekly pulmonary dose 0.25 mg/kg
[8] = NNK, weekly pulmonary dose 4.0 mg/kg
[9] = Urethane, weekly pulmonary dose 0.25 mg/kg
[10] = Urethane, weekly pulmonary dose 4.0 mg/kg

With `CC1=C(/C=C/C(C)=C/C=C/C(C)=C\C(=O)O)C(C)(C)CCC1` [13-cis RA, 13-cis-Retinoic Acid] the “TGase II assay, rat liver” value (TGase II [1]; High dose) was 19719 DPM/μg protein, the “TGase II assay, rat liver” value (TGase II [1]; High dose: 1872 μg/kg total deposited) was 0.271+/−0.015 picomoles/μg protein/30 min and 0.271 ± 0.015 picomoles/μg protein/30 min and the “TGase II assay, rat liver” value (TGase II [1]; Low dose, vehicle 20426) was 22705 DPM/μg protein. For the same compound, the “TGase II assay, rat liver” value (TGase II [1]; Low dose: 39 μg/kg total deposited, vehicle 0.260) was 0.289+/−0.007 picomoles/μg protein/30 min and 0.289 ± 0.007 picomoles/μg protein/30 min, the “TGase II assay, rat liver” value (TGase II [1]; Low-Middle dose) was 21448 DPM/μg protein and the “TGase II assay, rat liver” value (TGase II [1]; Low-Middle dose: 117 μg/kg total deposited) was 0.273+/−0.018 picomoles/μg protein/30 min and 0.273 ± 0.018 picomoles/μg protein/30 min. For the same compound, the “TGase II assay, rat liver” value (TGase II [1]; Middle dose) was 24590 DPM/μg protein, the “TGase II assay, rat liver” value (TGase II [1]; Middle dose: 351 μg/kg total deposited) was 0.313+/−0.025 picomoles/μg protein/30 min and 0.313 ± 0.025 picomoles/μg protein/30 min and the “TGase II assay, rat liver” value (TGase II [1]; Middle-High dose) was 20348 DPM/μg protein. The “TGase II assay, rat liver” value (TGase II [1]; Middle-High dose: 936 μg/kg total deposited) was 0.269+/−0.015 picomoles/μg protein/30 min and 0.269 ± 0.015 picomoles/μg protein/30 min, the “effect of inhaled 13-cis RA on liver TGase II activity” value (TGase II [1]; rat, up to 5.93 mg/kg of inhaled dose) was “without significant effect; also recorded: fails to significantly alter; also recorded: no significant effect” and the “Efficacy (Carcinogen)” value (A/J mouse; 200 mg/kg weekly ingested (po)) was “No (urethane)”. For the same compound, the “Efficacy (Carcinogen)” value (A/J mouse; 400 mg/kg weekly ingested (po)) was “No (urethane)”, the “prevention of urethane-induced lung cancer” value (A/J mouse; orally administered, over 300 mg/kg weekly, A/J mouse model) was “failed to prevent” and the “stimulating TGase II activity” value (TGase II [2]) was 6.1 Fold. For the same compound, the “Efficacy (Carcinogen)” value (A/J mice; 0.24 mg/kg weekly total deposited (inh), NNK, BaP, Maybe = trend for efficacy) was “Maybe”, the “Efficacy (Carcinogen)” value (A/J mice; 0.24 mg/kg weekly total deposited (inh), urethane) was “No” and the “Efficacy (Carcinogen)” value (A/J mice; 1.6 mg/kg weekly total deposited (inh), NNK, BaP) was “Yes”. The “Efficacy (Carcinogen)” value (A/J mice; 1.6 mg/kg weekly total deposited (inh), urethane) was “No”, the “Efficacy (Carcinogen)” value (A/J mice; 24.9 mg/kg weekly total deposited (inh), urethane, NNK, BaP) was “Yes (urethane, NNK, BaP)” and the “Hyperplastic Areas Per Lung Set (Mean ± SE)” value (A/J mice; BaP, weekly pulmonary dose 0.04 mg/kg, vehicle control 0.2) was 0.8 ± 0.3. For the same compound, the “Tumors Per Lung Set (Mean ± SE)” value (A/J mice; BaP, weekly pulmonary dose 0.04 mg/kg, vehicle control 9.0) was 6.4 ± 0.7^f, the “Total Lesions Per Lung Set (Mean ± SE)” value (A/J mice; BaP, weekly pulmonary dose 0.04 mg/kg, vehicle control 9.2) was 7.2 ± 0.8 and the “Hyperplastic Areas Per Lung Set (Mean ± SE)” value (A/J mice; [4]) was 3.2 ± 0.4^d. For the same compound, the “Total Lesions Per Lung Set (Mean ± SE)” value (A/J mice; [4]) was 6.1 ± 0.5^b, the “Tumors Per Lung Set (Mean ± SE)” value (A/J mice; [4]) was 3.0 ± 0.5^d and the “Hyperplastic Areas Per Lung Set (Mean ± SE)” value (A/J mice; [5]) was 3.3 ± 0.9^d. For the same compound, the “Total Lesions Per Lung Set (Mean ± SE)” value (A/J mice; [5]) was 5.2 ± 1.0^b, the “Tumors Per Lung Set (Mean ± SE)” value (A/J mice; [5]) was 1.8 ± 0.5^d and the “weekly pulmonary dose with evidence of efficacy (as low as)” value (A/J mice; [6]) was 0.25 mg/kg. For the same compound, the “weekly pulmonary dose with suggested efficacy” value (A/J mice; [6]) was 0.04 mg/kg, the “Hyperplastic Areas Per Lung Set (Mean ± SE)” value (A/J mice; NNK, weekly pulmonary dose 0.04 mg/kg, vehicle control 1.3) was 2.0 ± 0.4 and the “Tumors Per Lung Set (Mean ± SE)” value (A/J mice; NNK, weekly pulmonary dose 0.04 mg/kg, vehicle control 2.5) was 2.1 ± 0.3^e. For the same compound, the “Total Lesions Per Lung Set (Mean ± SE)” value (A/J mice; NNK, weekly pulmonary dose 0.04 mg/kg, vehicle control 3.8) was 4.1 ± 0.6, the “Hyperplastic Areas Per Lung Set (Mean ± SE)” value (A/J mice; [7]) was 3.3 ± 0.3^d and the “Total Lesions Per Lung Set (Mean ± SE)” value (A/J mice; [7]) was 3.6 ± 0.3. The “Tumors Per Lung Set (Mean ± SE)” value (A/J mice; [7]) was 0.3 ± 0.2^d, the “Hyperplastic Areas Per Lung Set (Mean ± SE)” value (A/J mice; [8]) was 3.8 ± 0.6^c and the “Total Lesions Per Lung Set (Mean ± SE)” value (A/J mice; [8]) was 4.5 ± 0.7. The “Tumors Per Lung Set (Mean ± SE)” value (A/J mice; [8]) was 0.8 ± 0.3^d, the “Hyperplastic Areas Per Lung Set (Mean ± SE)” value (A/J mice; Urethane, weekly pulmonary dose 0.04 mg/kg, vehicle control 4.6) was 3.6 ± 1.1 and the “Tumors Per Lung Set (Mean ± SE)” value (A/J mice; Urethane, weekly pulmonary dose 0.04 mg/kg, vehicle control 24.2) was 25.7 ± 1.7. For the same compound, the “Total Lesions Per Lung Set (Mean ± SE)” value (A/J mice; Urethane, weekly pulmonary dose 0.04 mg/kg, vehicle control 29.2) was 29.3 ± 1.5, the “Hyperplastic Areas Per Lung Set (Mean ± SE)” value (A/J mice; [9]) was 5.9 ± 1.2 and the “Total Lesions Per Lung Set (Mean ± SE)” value (A/J mice; [9]) was 32.2 ± 2.4. The “Tumors Per Lung Set (Mean ± SE)” value (A/J mice; [9]) was 26.4 ± 2.1, the “Hyperplastic Areas Per Lung Set (Mean ± SE)” value (A/J mice; [10]) was 5.3 ± 1.3 and the “Total Lesions Per Lung Set (Mean ± SE)” value (A/J mice; [10]) was 15.9 ± 1.9^d. For the same compound, the “Tumors Per Lung Set (Mean ± SE)” value (A/J mice; [10]) was 10.6 ± 1.2^d, the “effect of treatment on numbers of tumors” value (A/J mice; low (lowest) isotretinoin dose) was “not affected by treatment at the 95% confidence level; also recorded: not significantly effective” and the “non-significant reduction of tumor multiplicity” value (A/J mice; BaP-treated mice (p<0.13)) was 30%. For the same compound, the “non-significant reduction of tumor multiplicity” value (A/J mice; NNK-treated mice (p<0.30)) was 16%, the “reduction in multiplicity of tumor nodules” value (A/J mice; BaP-treated mice) was 67% and the “reduction in multiplicity of tumor nodules” value (A/J mice; NNK-treated mice) was 88%. For the same compound, the “protection against second aerodigestive tumors” value [3] was “significantly protective”.
